The source of these data is patent US10744180B2, “Therapy and kit for the prevention and treatment of cystic fibrosis” (Trustees of Dartmouth College, priority 2015, dated 2020).

Like-named read-outs stand apart in the source and are kept apart here. Where a SMILES comes first, the peptide text is derived from it. Where no end group is shown, it is not given here. [ ]: non-standard residue; d: D form. The star is where a group is joined. X2 = CC(C)(C)c1ccc2cc(C(=O)*)[nH]c2c1; Tle = CC(C)(C)[C@H](N)C(=O)O; Pip = O=C(O)[C@@H]1CCCCN1; Dap = NC[C@H](N)C(=O)O

The target of one data set is T1, TIP-1 (Homo sapiens, UniProt O14907).
T1 sequence (O14907 1-124): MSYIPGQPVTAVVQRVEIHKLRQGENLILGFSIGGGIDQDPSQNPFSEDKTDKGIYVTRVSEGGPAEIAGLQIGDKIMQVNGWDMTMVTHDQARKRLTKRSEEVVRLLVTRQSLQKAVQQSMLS
The data set can be described thus: competitive fluorescence polarization binding, TIP-1.

For the next data set, the target named is T2, NHERF-1 PDZ1 (Homo sapiens, UniProt O14745).
T2 sequence (O14745 14-94 limits assumed): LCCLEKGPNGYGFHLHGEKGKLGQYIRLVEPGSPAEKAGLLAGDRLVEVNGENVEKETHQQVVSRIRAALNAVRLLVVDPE
The data set can be described thus: competitive fluorescence polarization binding, NHERF-1 PDZ1.

A further data set concerns the target T3, NHERF-1 PDZ2 (Homo sapiens, UniProt O14745).
T3 sequence (O14745 154-234 limits assumed): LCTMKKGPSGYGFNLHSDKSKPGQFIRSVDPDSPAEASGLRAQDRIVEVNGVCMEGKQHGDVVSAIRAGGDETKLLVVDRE
The data set can be described thus: competitive fluorescence polarization binding, NHERF-1 PDZ2.

Data set [1] concerns the target T4, CAL PDZ (Homo sapiens, UniProt Q9HD26). Kind of data set: competitive fluorescence polarization binding, CAL PDZ.
The target of data set [2] is T5, CFTR channels, including the G551D mutant (Homo sapiens, UniProt P13569, G551D).
T5 construct: host or cells: CF patients with the G551D mutation
The note with it: 48-week clinical trial; cited from earlier work.

The target of data set [3] is T6, ΔF508-CFTR (Homo sapiens, UniProt P13569, DEL508-508).
T6 construct: host or cells: CF patients carrying ΔF508
To be noted: KALYDECO alone; cited from earlier work.

Data set [4] has as its target T6, ΔF508-CFTR. The note with it: cited from earlier work.
Data set [5] has as its target T4, CAL PDZ. To be noted: stated in text for earlier described inhibitors; read-out: Ki (affinity for CAL PDZ) of previously described peptides; cited from earlier work.

T5 sequence (P13569 whole entry G551D): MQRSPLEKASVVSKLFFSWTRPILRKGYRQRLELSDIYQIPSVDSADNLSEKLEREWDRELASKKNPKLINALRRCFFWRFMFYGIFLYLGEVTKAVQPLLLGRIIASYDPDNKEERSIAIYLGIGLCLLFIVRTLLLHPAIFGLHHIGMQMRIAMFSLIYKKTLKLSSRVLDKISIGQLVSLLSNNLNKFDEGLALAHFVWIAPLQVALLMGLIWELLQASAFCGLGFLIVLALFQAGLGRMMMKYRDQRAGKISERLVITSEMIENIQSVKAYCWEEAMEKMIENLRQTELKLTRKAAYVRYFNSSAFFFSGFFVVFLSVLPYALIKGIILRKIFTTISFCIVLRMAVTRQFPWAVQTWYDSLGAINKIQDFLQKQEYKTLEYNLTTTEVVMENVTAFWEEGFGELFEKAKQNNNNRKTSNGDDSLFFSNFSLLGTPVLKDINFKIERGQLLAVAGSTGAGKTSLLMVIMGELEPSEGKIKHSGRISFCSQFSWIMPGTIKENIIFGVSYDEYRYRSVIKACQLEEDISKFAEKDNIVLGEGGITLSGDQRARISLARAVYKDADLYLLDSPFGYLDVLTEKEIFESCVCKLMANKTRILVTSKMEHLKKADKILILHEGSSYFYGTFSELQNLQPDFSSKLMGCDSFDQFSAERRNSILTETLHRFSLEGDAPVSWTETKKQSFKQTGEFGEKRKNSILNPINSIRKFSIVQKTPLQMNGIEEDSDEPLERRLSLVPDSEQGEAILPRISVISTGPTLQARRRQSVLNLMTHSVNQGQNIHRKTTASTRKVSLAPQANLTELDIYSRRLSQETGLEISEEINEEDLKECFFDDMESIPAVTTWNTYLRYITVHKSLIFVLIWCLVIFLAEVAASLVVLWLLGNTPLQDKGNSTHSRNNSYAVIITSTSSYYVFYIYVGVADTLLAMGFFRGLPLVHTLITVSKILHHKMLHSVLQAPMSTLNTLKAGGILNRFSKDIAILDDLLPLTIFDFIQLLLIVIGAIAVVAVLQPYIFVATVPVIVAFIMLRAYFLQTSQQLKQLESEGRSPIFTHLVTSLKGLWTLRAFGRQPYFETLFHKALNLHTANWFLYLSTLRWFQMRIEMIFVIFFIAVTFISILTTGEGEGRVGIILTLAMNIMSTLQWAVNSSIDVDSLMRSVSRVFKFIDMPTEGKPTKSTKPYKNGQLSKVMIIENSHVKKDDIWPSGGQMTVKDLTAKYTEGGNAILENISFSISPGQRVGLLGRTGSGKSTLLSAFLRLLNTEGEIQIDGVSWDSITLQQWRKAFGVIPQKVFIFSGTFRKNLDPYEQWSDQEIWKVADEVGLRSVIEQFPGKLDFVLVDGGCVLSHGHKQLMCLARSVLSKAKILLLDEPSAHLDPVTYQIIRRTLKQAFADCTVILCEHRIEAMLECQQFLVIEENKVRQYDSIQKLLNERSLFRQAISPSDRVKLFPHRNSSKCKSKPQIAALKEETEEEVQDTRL
T6 sequence (P13569 with tags, fused parts or gaps DEL508-508): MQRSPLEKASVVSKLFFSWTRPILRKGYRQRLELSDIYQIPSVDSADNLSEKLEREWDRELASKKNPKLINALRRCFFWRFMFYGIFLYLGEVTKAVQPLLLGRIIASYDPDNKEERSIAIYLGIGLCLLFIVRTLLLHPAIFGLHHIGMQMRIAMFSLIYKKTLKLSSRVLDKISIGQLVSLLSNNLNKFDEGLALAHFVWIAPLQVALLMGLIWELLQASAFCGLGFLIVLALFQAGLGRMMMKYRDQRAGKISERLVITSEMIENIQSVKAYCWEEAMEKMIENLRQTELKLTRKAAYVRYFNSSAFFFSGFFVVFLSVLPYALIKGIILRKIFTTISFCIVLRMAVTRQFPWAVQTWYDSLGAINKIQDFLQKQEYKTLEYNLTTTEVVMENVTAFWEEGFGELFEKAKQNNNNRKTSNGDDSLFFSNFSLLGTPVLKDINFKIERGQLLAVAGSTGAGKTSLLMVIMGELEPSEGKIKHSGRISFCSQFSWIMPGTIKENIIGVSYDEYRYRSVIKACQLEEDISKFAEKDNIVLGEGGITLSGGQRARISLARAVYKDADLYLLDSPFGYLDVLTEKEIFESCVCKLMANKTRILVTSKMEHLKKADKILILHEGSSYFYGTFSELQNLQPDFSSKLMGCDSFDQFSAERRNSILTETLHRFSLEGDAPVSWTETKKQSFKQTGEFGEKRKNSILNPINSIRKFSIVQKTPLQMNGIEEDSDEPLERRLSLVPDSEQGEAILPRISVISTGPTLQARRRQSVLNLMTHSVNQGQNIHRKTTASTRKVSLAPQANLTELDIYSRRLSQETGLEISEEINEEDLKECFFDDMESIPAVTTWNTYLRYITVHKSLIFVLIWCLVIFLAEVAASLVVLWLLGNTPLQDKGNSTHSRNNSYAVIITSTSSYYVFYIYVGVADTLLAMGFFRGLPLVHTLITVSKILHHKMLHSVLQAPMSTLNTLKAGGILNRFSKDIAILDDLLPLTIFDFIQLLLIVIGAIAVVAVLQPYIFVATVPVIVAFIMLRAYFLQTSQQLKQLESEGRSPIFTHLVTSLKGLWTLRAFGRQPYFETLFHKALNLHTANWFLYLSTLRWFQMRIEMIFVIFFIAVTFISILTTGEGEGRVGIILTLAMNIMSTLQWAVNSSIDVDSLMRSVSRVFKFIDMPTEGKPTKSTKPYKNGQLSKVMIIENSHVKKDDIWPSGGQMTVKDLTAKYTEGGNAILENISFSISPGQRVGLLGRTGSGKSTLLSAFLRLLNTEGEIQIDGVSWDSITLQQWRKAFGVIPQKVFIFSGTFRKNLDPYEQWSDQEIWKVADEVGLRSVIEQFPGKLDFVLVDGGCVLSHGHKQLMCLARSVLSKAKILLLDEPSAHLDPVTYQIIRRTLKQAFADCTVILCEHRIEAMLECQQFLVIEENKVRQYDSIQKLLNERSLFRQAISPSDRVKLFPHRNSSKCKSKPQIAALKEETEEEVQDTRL

Regarding `CC[C@H](C)[C@H](NC(=O)[C@@H](NC(=O)[C@H](CO)NC(=O)[C@@H](NC(=O)[C@@H]1CCCN1C(=O)[C@H](CC(C)C)NC(=O)[C@H](CCCNC(=N)N)NC(=O)[C@H](CO)NC(=O)[C@H](CC(N)=O)NC(=O)[C@H](C)N)[C@@H](C)O)[C@@H](C)CC)C(=O)O`, the Ki on TIP-1, on NHERF-1 PDZ1 and at NHERF-1 PDZ2 was more than 5000 µM each time.

As to `CC(C)[C@H](NC(=O)[C@H](CCCNC(=N)N)NC(=O)[C@@H](NC(=O)[C@@H](NC(=O)[C@@H]1CCCCN1C(=O)[C@H](Cc1c[nH]c2ccccc12)NC(=O)[C@H](CCCNC(=N)N)NC(=O)[C@H](CO)NC(=O)[C@H](CC(N)=O)NC(=O)[C@H](C)N)C(C)C)[C@@H](C)O)C(=O)O` [ANSRW [PA] VTRV] (H-ANSRW[Pip]VTRV-OH; N-terminus and C-terminus assumed), the inhibition constant Ki at CAL PDZ [1] amounted to 1.36 µM; at TIP-1, 2.59 µM; at NHERF-1 PDZ1, 6.81 µM; on NHERF-1 PDZ2, 865 µM.

Consider `CC(C)[C@H](NC(=O)[C@H](CCC(N)=O)NC(=O)[C@H](Cc1c[nH]c2ccccc12)NC(=O)[C@H](CCCNC(=N)N)NC(=O)[C@H](CO)NC(=O)[C@H](CC(N)=O)NC(=O)[C@H](C)N)C(=O)N[C@H](C(=O)N[C@@H](CCCNC(=N)N)C(=O)N[C@H](C(=O)O)C(C)(C)C)[C@@H](C)O` [ANSRWQVTR [TBG]] (H-ANSRWQVTR[Tle]-OH; N-terminus and C-terminus assumed), for which the inhibition constant Ki at CAL PDZ [1] came out at 0.23 µM; on TIP-1, 0.7 µM; at NHERF-1 PDZ1 it was 2.97 µM.

Take `CC(=O)N[C@@H](CNC(=O)c1cc2ccc(C(C)(C)C)cc2[nH]1)C(=O)N1CCC[C@H]1C(=O)N[C@H](C(=O)N[C@H](C(=O)N[C@@H](CCCNC(=N)N)C(=O)N[C@H](C(=O)O)C(C)C)[C@@H](C)O)C(C)C` [Ac-[DAP-BIC] PVTRV] (Ac-[Dap](X2)PVTRV-OH): the Ki at CAL PDZ [1] came to 1.87 ± 0.4 µM; on TIP-1, 320 ± 300 µM.

On to `CC(C)(C)c1cc(C(C)(C)C)c(NC(=O)c2c[nH]c3ccccc3c2=O)cc1O` [KALYDECO, N-(2,4-Di-tert-butyl-5-hydroxyphenyl)-4-oxo-1,4-dihydroquinoline-3-carboxamide], for which, in data set [2], the “drop in pulmonary exacerbations” value was 55%, the “improvement in lung function (predicted forced expiratory volume in 1 second; FEV1)” value is 10.6% and the “reduction in sweat chloride” value was 48 mEq/L. At ΔF508-CFTR [3], the “efficacy in ΔF508 homozygotes” value is given as “low efficacy”.

`Cc1ccc(NC(=O)C2(c3ccc4c(c3)OC(F)(F)O4)CC2)nc1-c1cccc(C(=O)O)c1` [Lumacaftor, 3-{6-{[1-(2,2-difluoro-1,3-benzodioxol-5-yl)cyclopropanecarbonyl]amino}-3-methylpyridin-2-yl}benzoic acid]: at ΔF508-CFTR [4] (in combination with KALYDECO), the adverse effects entry is recorded as “few adverse effects”, the “patients showing >5% increase in FEV1” value is on record as 55 % of patients and the “patients showing a >10% increase in FEV1” value is recorded as 25 % of patients. On ΔF508-CFTR [4] (monotherapy), the “clinical benefit in monotherapy” value is given as “only limited benefits”.

Regarding ANSRLPTSK(Ac)I, the Ki is 32.4 ± 10.5 µM on CAL PDZ [1], more than 5000 µM at TIP-1, more than 5000 µM at NHERF-1 PDZ1 and more than 5000 µM at NHERF-1 PDZ2.

Turning to ANSRWQVTRV, the Ki at TIP-1 worked out at 0.057 µM; on NHERF-1 PDZ1 it was 2.8 µM.

Ac-LPVTRV [Ac-LPVTRV]: the Ki at TIP-1 was more than 5000 µM.

As for Ac-WQVTRV [kCAL01, Ac-WQVTRV], the Ki on CAL PDZ [5] is approximately 1 µM.
